The IC50 is the midpoint of a concentration-inhibition curve.

Data on one compound can be found in patent US5679680A, “α-substituted hydrazides having calpain inhibitory activity” (Warner-Lambert Company, priority 1995, dated 1997).

Experiment [1] has as its target T1, Human Calpain I (Homo sapiens, UniProt P07384).
T1 construct: Calpain I was purified from human erythrocytes; from tissue; host or cells: human erythrocytes
T1 sequence (P07384 1-714): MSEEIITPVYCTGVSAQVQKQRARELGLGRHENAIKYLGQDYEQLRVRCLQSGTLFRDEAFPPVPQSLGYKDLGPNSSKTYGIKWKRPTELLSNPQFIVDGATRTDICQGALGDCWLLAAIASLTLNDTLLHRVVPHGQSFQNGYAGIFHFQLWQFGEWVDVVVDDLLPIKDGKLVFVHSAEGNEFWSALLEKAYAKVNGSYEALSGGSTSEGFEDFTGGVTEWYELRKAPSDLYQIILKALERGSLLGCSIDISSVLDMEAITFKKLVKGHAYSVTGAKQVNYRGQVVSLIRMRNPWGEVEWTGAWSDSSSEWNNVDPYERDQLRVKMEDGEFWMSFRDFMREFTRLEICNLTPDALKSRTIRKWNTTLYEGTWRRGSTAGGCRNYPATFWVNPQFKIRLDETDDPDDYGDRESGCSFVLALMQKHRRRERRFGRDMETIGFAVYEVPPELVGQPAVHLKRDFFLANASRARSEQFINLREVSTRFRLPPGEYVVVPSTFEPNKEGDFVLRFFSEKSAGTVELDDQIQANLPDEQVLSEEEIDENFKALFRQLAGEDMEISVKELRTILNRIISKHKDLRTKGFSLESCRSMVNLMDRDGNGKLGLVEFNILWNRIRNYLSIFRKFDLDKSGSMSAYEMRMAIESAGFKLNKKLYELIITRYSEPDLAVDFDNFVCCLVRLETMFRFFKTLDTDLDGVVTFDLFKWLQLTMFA
T1 sequence (P04632 1-268 partner): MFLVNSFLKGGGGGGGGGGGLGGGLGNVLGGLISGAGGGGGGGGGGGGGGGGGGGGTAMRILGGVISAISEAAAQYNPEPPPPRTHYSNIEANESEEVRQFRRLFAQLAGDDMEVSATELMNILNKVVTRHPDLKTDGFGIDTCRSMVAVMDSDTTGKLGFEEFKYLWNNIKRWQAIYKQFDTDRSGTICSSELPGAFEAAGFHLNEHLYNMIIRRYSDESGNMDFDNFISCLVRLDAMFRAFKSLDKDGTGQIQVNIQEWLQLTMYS
Put plainly: Calpain I activity, casein substrate, Coomassie microplate assay. It counts as biochemical. On the procedure:
Assay of calpain activity: Calpain I was purified from human erythrocytes as described by Wang K K W, Roufogalis B D, and Villalobo A, Arch Biochem Biophys 1988;267: 317-327. Calpain activity was assayed in a 96-well microplate format (Buroker-Kilgore M and Wang K K W, Anal Bio Chem 1993;208: 387-392). In 250 μL of reaction mixture, substrate casein (0.5 mg/mL) was incubated with 0.01 unit (80-120 ng) calpain I, 20 mM dithiothreitol (DTT), 50 mM Tris-HCl (pH 7.4 at 25° C.) and 4 mM CaCl2 at 25° C. for 60 minutes. Two 100-μL aliquots were taken for Coomassie blue G250 binding analysis to quantify the remaining casein.
Compound concentrations that cause 50% inhibition (IC50) are as shown (Table I). The second rate of inactivation of calpain I for 2 compounds are also shown.
(§1) Selectivity of α-substituted Hydrazides: Calpain I and II were assayed as described in Example 1. One to 2 ng papain (papaya latex, Sigma, P3125), 1.25 μg trypsin (bovine pancreas, Sigma, T8003), 5 μg thermolysin (Bacillus thermoproteolyticus, Sigma, P1512) were assayed using 0.5 mg/mL casein as substrate in the microplate format (250 μL reaction volume), essentially a described by Buroker-Kilgore, M. and Wang K K W, Anal Biochem 1993;208: 387-392. Cathepsin B (0.002 unit, bovine spleen) was assayed with 50 mM MES (pH 5.5), 100 μM carbobenzoxy-Arg-Arg-4-methoxy-beta-naphthlamide (Cbz-Arg-Arg-MNA), inhibitor, and 2 mM DTT in 200 μL for 60 minutes at room temperature. Fifty-microliter aliquots were transferred to a fluorescence-compatible plate and then read with a Perkin-Elmer fluorometer LS-50B (excitation 340 nm and emission 425 nm). Calcineurin (bovine brain, Sigma) (5 μg, 0.8 unit) was assayed with 10 mM p-nitrophenyl phosphate in 1 mM DTT, 1 mM CaCl2, 1 mM MnCl2, […] calmodulin (CaM, if added), and 50 mM Tris-HCl (pH 7.4) at 25° C. for 60 minutes or more. Production of p-nitrophenol was monitored at 405 nm. Inhibition of these proteases are presented as IC50.

Experiment [2] addresses T2, Cathepsin B (Bos taurus, UniProt P07688).
T2 construct: Cathepsin B (0.002 unit, bovine spleen); from tissue; host or cells: bovine spleen
Put plainly: Cathepsin B assay (Cbz-Arg-Arg-MNA substrate). The format is biochemical, bovine. As to conditions: pH 5.5, 60 minutes, room temperature. On the procedure:
as §1

Experiment [3] has as its target T3, Thermolysin (Bacillus thermoproteolyticus, UniProt P00800).
T3 construct: purchased Sigma P1512; host or cells: Bacillus thermoproteolyticus
Put plainly: Thermolysin assay, casein substrate. It counts as biochemical. How it is done: as §1

The target in experiment [4] is T4, Calmodulin-calcineurin (Bos taurus, UniProt P48452).
T4 construct: purchased Sigma; host or cells: bovine brain
Put plainly: Calmodulin-calcineurin assay (p-nitrophenyl phosphate). It counts as biochemical, bovine. Conditions: pH 7.4, 25° C., 60 minutes or more. How it is done: as §1

Experiment [5] has as its system Fetal Rat Cerebrocortical Cultures. Nature of the experiment: Oxygen/glucose deprivation induced LDH release from fetal rat cerebrocortical cultures. The format is cell-based. A general note: LDH leaks from cells whose membrane has failed.
The test system of experiment [6] is Purkinje cells in cerebellar slices. Put plainly: AMPA toxicity to Purkinje cells in cerebellar slices. The format is cell-based, rat. As to conditions: 100 μM compound. On the procedure: (ii) Neuroprotective effects of the compound of Example 5 against AMPA toxicity to Purkinje cells in cerebellar Slices: Cerebellar slices were acutely isolated from adult rats and maintained in an oxygenated bath for the duration of the experiment as described elsewhere (Caner, et al., Brain Research 1993;607: 354-356). Example 5 (100 μM) was added to the ACSF (124 mM NaCl, 3.3 mM KCl, 2 mM CaCl2, 25.7 mM NaHCO3, 2.4 mM MgSO4, 1.25 mM KH2 PO4, 10 mM glucose) 60 minutes before the addition of amino-3-hydroxy-5-methyl-4-isoxazole propionic acid (AMPA; 30 μM for 30 minutes). The slices were then allowed to recover in normal ACSF for an additional 90 minutes. Histological damage to Purkinje cells was identified and quantified as described in detail elsewhere (Caner, et al., Brain Research 1993;607: 354-356).

T3 sequence (P00800 233-548): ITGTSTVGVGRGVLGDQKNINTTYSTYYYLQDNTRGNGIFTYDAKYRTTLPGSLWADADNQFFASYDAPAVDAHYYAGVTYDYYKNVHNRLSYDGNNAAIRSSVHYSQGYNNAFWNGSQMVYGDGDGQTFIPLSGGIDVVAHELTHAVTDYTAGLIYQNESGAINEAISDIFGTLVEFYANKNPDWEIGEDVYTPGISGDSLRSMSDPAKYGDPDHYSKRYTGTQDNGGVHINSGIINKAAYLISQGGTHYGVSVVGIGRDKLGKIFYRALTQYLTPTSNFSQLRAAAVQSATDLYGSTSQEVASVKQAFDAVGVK

With `O=C(CCl)NN=c1[nH]c2ccccc2n(-c2ccccc2)c1=O` [Example 5, 2-Chloro-acetic acid (3-oxo-4-phenyl-3,4-dihydro-1H-quinoxalin-2-ylidene)-hydrazide], in experiment [1], the “Ki/[I] Calpain I (second rate of inactivation)” value amounted to 109 M⁻¹ s⁻¹. Also, the IC50 in experiment [1] (casein 0.5 mg/mL, pH 7.4, 25° C., 60 minutes (Table I)) was 0.364 µM; in experiment [2], above 200 µM; in experiment [3], above 500 µM; in experiment [4] it was above 500 µM. In addition, the LDH release in experiment [5] (Hypoxia/Hypoglycemia, mean ± SEM (6), p < 0.001 vs Hypoxia/Hypoglycemia alone (143.81 ± 9.72), Normoxia 46.13 ± 6.08) was 57.27 ± 8.11 Unit/mL. In experiment [5] (LDH release after 24 hours), the “Resistance of neurons to oxygen/glucose deprivation” value was “enabled the neurons to resist the oxygen/glucose deprivation for longer”. In addition, the AMPA-induced neurotoxicity entry in experiment [6] (AMPA 30 μM) is given as “can be ameliorated”. In experiment [6] (Rattus norvegicus, purkinje, 0.5 h, AMPA 30 μM for 30 minutes, mean ± SEM (10), p < 0.005 vs AMPA alone (13.41 ± 2.34), Control 94.41 ± 0.97, read-out: % Live Purkinje Neurons), the viability at 100 µM worked out at 51 ± 4.8%.
